{"source": "patent US7157099B2", "about": "“Sustained release pharmaceutical compositions for the parenteral administration of hydrophilic compounds” (Italfarmaco S.p.A., priority 2000, dated 2007)", "key": {"[1]": {"test": "in vivo", "conditions": "male, rat, plasma, 6 mg/rat"}, "[2]": {"conditions": "male rats, 6 mg/rat of microemulsion of Example 11"}}, "data": [{"compound": "C[C@@H](O)[C@@H]1NC(=O)[C@H](CCCCN)NC(=O)[C@@H](Cc2c[nH]c3ccccc23)NC(=O)[C@H](Cc2ccccc2)NC(=O)[C@@H](NC(=O)[C@H](N)Cc2ccccc2)CSSC[C@@H](C(=O)N[C@H](CO)[C@@H](C)O)NC1=O", "note": "[Octreotide]", "values": [{"measurement": "level at 0.5 h", "setting": "[1]", "value": 539, "unit": "ng/mL"}, {"measurement": "level at 24 h", "setting": "[1]", "value": 40.2, "unit": "ng/mL"}, {"measurement": "level at 96 h", "setting": "[1]", "value": 62.5, "unit": "ng/mL"}, {"measurement": "level at 144 h", "setting": "[1]", "value": 4.5, "unit": "ng/mL"}, {"measurement": "level at 192 h", "setting": "[1]", "value": 7.6, "unit": "ng/mL"}, {"measurement": "Time until which significant Octreotide plasma levels were found after treatment", "setting": "[2]", "value": 8, "unit": "days"}]}]}
